The test system of data set [1] is hair follicle melanocytes. In words: MSH-antagonizing effect: eumelanin production in cultured skin grafts, specimen pre-incubated with grafts before α-MSH (Example 2). Conditions: skin grafts cultured in Ham's F-12 at 37° C. for 2 days; for Eumelanin production, 10^-9 M of α-MSH and 10^-8 M of specimen added: microscope observation at hair follicles. The arrangement: key: ±: weak; +: strong. It counts as cell-based, yellow mice (C 57 BL/6J-A'). Here is the method: (§1) Skin grafts (about 1 mm×1 mm) of yellow mice (C 57 BL/6J-A') (7.5 days after the birth) containing hair follicle melanocytes were cultured in Ham's F-12 culture medium at 37° C. for 2 days. The culture media used were: (i) Ham's F-12 medium containing α-MSH, (ii) that containing both α-MSH and the compound of the present invention, i.e., the compound of the present invention and the skin grafts had been incubated in a Ham's F-12 medium so as to interact the compounds with a receptor on the melanocyte surface of the skin and then the resultant was contacted with α-MSH in a fresh Ham's F-12 medium and (iii) that containing no additive. After completion of the culture followed by fixation with 10% formalin, specimens were prepared by an ordinary method.

Data set [2] concerns hair follicle melanocytes. In words: MSH-inhibiting effect: eumelanin production in cultured skin grafts, specimen pre-mixed with α-MSH (Example 10). Type of data set: cell-based, yellow mice (C 57 BL/6J-A'). Further details: key: ±: weak; +: strong. Particulars: for Eumelanin production, 10^-9 M of α-MSH and 10^-8 M of specimen added: α-MSH and specimen mixed first, then skin grafts added, Ham's F-12, 37° C., 2 days. How it is done:
as §1, with “i.e., α-MSH and” for “i.e.,”, “were mixed” for “and the skin grafts had been incubated in a Ham's F-12 medium”, “each other” for “the compounds with a receptor on the melanocyte surface of the skin”, “skin grafts were added thereto,” for “resultant was contacted with α-MSH in a fresh Ham's F-12 medium”

The test system of data set [3] is pigmented spots (chloasmata or freckles). In words: External preparation applied to pigmented spots of patients. Type of data set: in vivo, human. Particulars: for Skin trouble during or after use of the cream / Fading/relief of pigmented spots versus comparative cream: cream containing 0.001 wt. % of compound; for Skin trouble during or after use of the cream: twice a day for two months; for Fading/relief of pigmented spots versus comparative cream: applied twice a day for two months, eight male and female patients. From the text:
The cream thus prepared was applied to pigmented spots (chloasmata or freckles) of eight male and female patients twice a day (in the morning and evening) for two months.

Residues, ends and D or L forms follow the SMILES beside them. No end group written: not given here.

On to `CSCC[C@H](NC(C)=O)C(=O)N[C@@H](CCC(=O)O)C(=O)N[C@@H](Cc1c[nH]cn1)C(=O)N[C@@H](CO)C(=O)N[C@@H](CCCNC(=N)N)C(=O)N[C@@H](Cc1c[nH]c2ccccc12)C(=O)NCC(=O)N[C@@H](CCCCN)C(N)=O` [Compound No. 14, Ac--Met--Glu--His--Ser--Arg--Trp--Gly--Lys--NH2] (Ac-MEHSRWGK-NH2), for which the “Eumelanin production, 10^-9 M of α-MSH and 10^-8 M of specimen added” value (shortened to “Eumelanin production … of specimen added”) in data set [1] was “±”. For `CC[C@H](C)[C@H](NC(=O)[C@H](CC(C)C)NC(=O)[C@H](CC(C)C)NC(=O)[C@H](CC(C)C)NC(=O)[C@H](CCC(N)=O)NC(=O)[C@H](CC(C)C)NC(=O)[C@H](C)NC(=O)[C@H](Cc1c[nH]cn1)NC(=O)[C@H](CC(C)C)NC(C)=O)C(=O)N[C@@H](CC(C)C)C(=O)N[C@@H](CC(C)C)C(=O)N[C@@H](C)C(=O)N[C@@H](CS)C(=O)N[C@@H](C)C(=O)N[C@@H](CCCNC(=N)N)C(=O)N[C@H](C(=O)N[C@@H](CO)C(=O)N1CCC[C@H]1C(=O)NCC(=O)N[C@@H](CCCNC(=N)N)C(=O)N[C@@H](CCCNC(=N)N)C(N)=O)[C@@H](C)CC` [Compound No. 135, Ac--Leu--His--Ala--Leu--Gln--Leu--Leu--Leu--Ile--Leu--Leu--Ala--Cys--Ala--Arg--Ile--Ser--Pro--Gly--Arg--Arg--NH2] (Ac-LHALQLLLILLACARISPGRR-NH2), the “Eumelanin production … of specimen added” value in data set [2] was “±”. With “Ac--Cys--Cys--Trp--Arg--Ser--His--Gln--Pro--NH2 (Ac-CCWRSHQP-NH2; cysteine pairing not given here) [compound 74]”, the “Eumelanin production … of specimen added” value in data set [1] is recorded as “±”. With `CC[C@H](C)[C@H](NC(=O)[C@H](CC(C)C)NC(=O)[C@H](CC(C)C)NC(=O)[C@H](CC(C)C)NC(=O)[C@H](CCC(N)=O)NC(=O)[C@H](CC(C)C)NC(=O)[C@H](C)NC(=O)[C@H](Cc1c[nH]cn1)NC(=O)[C@@H](N)CC(C)C)C(=O)N[C@@H](CC(C)C)C(=O)N[C@@H](CC(C)C)C(=O)N[C@@H](C)C(=O)N[C@@H](CS)C(=O)N[C@@H](C)C(=O)N[C@@H](CCCNC(=N)N)C(=O)N[C@H](C(=O)N[C@@H](CO)C(=O)N1CCC[C@H]1C(=O)NCC(=O)N[C@@H](CCCNC(=N)N)C(=O)N[C@@H](CCCNC(=N)N)C(=O)O)[C@@H](C)CC` [Compound No. 132, Leu--His--Ala--Leu--Gln--Leu--Leu--Leu--Ile--Leu--Leu--Ala--Cys--Ala--Arg--Ile--Ser--Pro--Gly--Arg--Arg] (H-LHALQLLLILLACARISPGRR-OH), the “Skin trouble during or after use of the cream” value in data set [3] is given as “no skin trouble was observed”.

Take “α-MSH: melanocyte-stimulating hormone (melanotropin), peptide hormone that activates melanocytes; stimulus in the skin graft test (SYSMEHFRWGKPV; ends and bridges not checked; UniProt P01189 138-150, looked up) [reference compound]”: the “Eumelanin production, 10^-9 M of α-MSH added” value was “+” in data set [2] (α-MSH alone, skin grafts cultured in Ham's F-12 at 37° C. for 2 days) and “+” in data set [1] (α-MSH alone). As to `CSCC[C@H](NC(=O)[C@H](CO)NC(=O)[C@H](Cc1ccc(O)cc1)NC(=O)[C@H](CO)NC(C)=O)C(=O)N[C@@H](CCC(=O)O)C(=O)N[C@@H](Cc1c[nH]cn1)C(=O)N[C@@H](CO)C(=O)N[C@@H](CCCNC(=N)N)C(=O)N[C@@H](Cc1c[nH]c2ccccc12)C(=O)NCC(=O)N[C@@H](CCCCN)C(=O)N1CCC[C@H]1C(=O)N[C@H](C(N)=O)C(C)C` [Compound No. 40, Ac--Ser--Tyr--Ser--Met--Glu--His--Ser--Arg--Trp--Gly--Lys--Pro--Val--NH2], in data set [3], the “Fading/relief of pigmented spots versus comparative cream” value is “far more faded” and the “Skin trouble during or after use of the cream” value is “no skin trouble was observed”. The “Eumelanin production … of specimen added” value in data set [1] was “±”. As for “Ac--Cys--His--Cys--Cys--Trp--Arg--Ser--His--Gln--Pro--Ala--Arg--Pro--NH2 (Ac-CHCCWRSHQPARP-NH2; cysteine pairing not given here) [Compound No. 85]”, the “Fading/relief of pigmented spots versus comparative cream” value in data set [3] is listed as “relieved the pigmented spots”. Also, the “Eumelanin production … of specimen added” value in data set [1] is listed as “±”.

As to `CC[C@H](C)[C@H](N)C(=O)N[C@@H](CC(C)C)C(=O)N[C@@H](CC(C)C)C(=O)N[C@@H](C)C(=O)N[C@@H](CS)C(=O)N[C@@H](C)C(=O)N[C@@H](CCCNC(=N)N)C(=O)N[C@H](C(=O)N[C@@H](CO)C(=O)N1CCC[C@H]1C(=O)NCC(=O)N[C@@H](CCCNC(=N)N)C(=O)N[C@@H](CCCNC(=N)N)C(=O)O)[C@@H](C)CC` [Compound No. 113, Ile--Leu--Leu--Ala--Cys--Ala--Arg--Ile--Ser--Pro--Gly--Arg--Arg] (H-ILLACARISPGRR-OH), the “Skin trouble during or after use of the cream” value in data set [3] was “no skin trouble was observed”. For the compound `CC[C@H](C)[C@H](NC(C)=O)C(=O)N[C@@H](CC(C)C)C(=O)N[C@@H](CC(C)C)C(=O)N[C@@H](C)C(=O)N[C@@H](CS)C(=O)N[C@@H](C)C(=O)N[C@@H](CCCNC(=N)N)C(=O)N[C@H](C(=O)N[C@@H](CO)C(=O)N1CCC[C@H]1C(=O)NCC(=O)N[C@@H](CCCNC(=N)N)C(=O)N[C@@H](CCCNC(=N)N)C(N)=O)[C@@H](C)CC` [Compound No. 116, Ac--Ile--Leu--Leu--Ala--Cys--Ala--Arg--Ile--Ser--Pro--Gly--Arg--Arg--NH2] (Ac-ILLACARISPGRR-NH2), the “Relief of pigmented spots versus comparative milky lotion” value in data set [3] (milky lotion containing 0.0001 % of compound, same method as Example 3) was “relieved the pigmented spots”. Also, the “Eumelanin production … of specimen added” value in data set [2] is “±”.

These data come from patent US5126327A, “Melanocyte-stimulating hormone inhibitor and external preparation containing the same” (Lion Corporation, priority 1989, dated 1992).
